In patent US10597388B2, “Pyridazinone herbicides” (FMC CORPORATION, priority 2014, dated 2020):
Read-outs that look alike come from different tables or passages of the source.

Assays:
Test in all cases: Test A greenhouse herbicide test, pre- and postemergence
Format in all cases: in vivo
[1] = tested on: corn (Zea mays); details: for Plant response rating, Corn / Corn plant response rating (crop injury, 0 = no effect, 100 = complete kill) at 125 g/ha / plant injury at 500 g/ha: Postemergence; for Corn plant response rating (crop injury, 0 = no effect, 100 = complete kill) at 125 g/ha / plant injury at 500 g/ha: post-emergence; for plant injury at 500 g/ha: 0 is no effect, 100 is complete control
In short: (§1)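 Visual injury ratings, 0 (no effect) to 100 (complete control), versus untreated plants after roughly 10 d in a greenhouse. Compounds, formulated in a surfactant-containing non-phytotoxic solvent, were sprayed on loam–sand soil after sowing (pre) or on one- to two-leaf plants 2–10 cm tall (post).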

[2] = tested on: pigweed (Amaranthus retroflexus); details: for pest or weed control at 125 g/ha / pest or weed control at 500 g/ha: Amaranthus retroflexus, 240 h; for pest or weed control at 500 g/ha: 0 to 100 scale
In short: as §1

[3] = tested on: ragweed (common ragweed, Ambrosia elatior); details: for pest or weed control at 125 g/ha / pest or weed control at 500 g/ha: Ambrosia artemisiifolia, 240 h; for pest or weed control at 500 g/ha: 0 to 100 scale
In short: as §1

[4] = tested on: foxtail, giant (giant foxtail, Setaria faberii); details: for pest or weed control at 125 g/ha / pest or weed control at 500 g/ha: Setaria faberi, 240 h; for pest or weed control at 500 g/ha: 0 to 100 scale
In short: as §1

[5] = tested on: wheat (Triticum aestivum); details: for plant injury at 125 g/ha / plant injury at 500 g/ha: Triticum aestivum, 240 h; for plant injury at 500 g/ha: 0 to 100 scale
In short: as §1

[6] = tested on: kochia (Kochia scoparia); details: for pest or weed control at 125 g/ha / pest or weed control at 500 g/ha: Bassia scoparia, 240 h; for pest or weed control at 500 g/ha: 0 to 100 scale
In short: as §1

[7] = tested on: barnyardgrass (Echinochloa crus-galli); details: for pest or weed control at 125 g/ha / pest or weed control at 500 g/ha: Echinochloa crus-galli, 240 h; for pest or weed control at 500 g/ha: 0 to 100 scale
In short: as §1

[8] = Postemergence, 125 g ai/ha, 0 to 100 scale where 0 is no effect and 100 is complete control
[9] = Postemergence, 500 g ai/ha, visual rating after approx. 10 d, 0 to 100 scale (0 no effect, 100 complete control)
[10] = Preemergence, 125 g ai/ha, 0 to 100 scale where 0 is no effect and 100 is complete control
[11] = Preemergence, 500 g ai/ha, 0 to 100 scale where 0 is no effect and 100 is complete control
[12] = Zea mays, 240 h, 125 g ai/ha, visual rating after approx. 10 d, 0 to 100 scale (0 no effect, 100 complete control)
[13] = Zea mays, 240 h, 500 g ai/ha, 0 to 100 scale, read-out: Corn plant response rating
[14] = post-emergence, Postemergence, 125 g ai/ha, visual rating after approx. 10 d, 0 to 100 scale (0 no effect, 100 complete control), read-out: Plant response rating, Pigweed
[15] = post-emergence, Postemergence, 500 g ai/ha, 0 is no effect, 100 is complete control, read-out: Pigweed plant response rating
[16] = pre-emergence, Preemergence, 125 g ai/ha, 0 to 100 scale where 0 is no effect and 100 is complete control, read-out: Pigweed plant response rating
[17] = pre-emergence, Preemergence, 500 g ai/ha, 0 no effect, 100 complete control, read-out: Plant response rating, Pigweed
[18] = post-emergence, Postemergence, 125 g ai/ha, visual rating after approx. 10 d, 0 to 100 scale (0 no effect, 100 complete control), read-out: Plant response rating, Foxtail, Giant
[19] = post-emergence, Postemergence, 500 g ai/ha, 0 is no effect, 100 is complete control, read-out: Foxtail, Giant plant response rating
[20] = pre-emergence, Preemergence, 125 g ai/ha, 0 to 100 scale where 0 is no effect and 100 is complete control, read-out: Foxtail, Giant plant response rating
[21] = pre-emergence, Preemergence, 500 g ai/ha, 0 no effect, 100 complete control, read-out: Plant response rating, Foxtail, Giant
[22] = post-emergence, Postemergence, 125 g ai/ha, visual rating after approx. 10 d, 0 to 100 scale (0 no effect, 100 complete control), read-out: Plant response rating, Wheat
[23] = post-emergence, Postemergence, 500 g ai/ha, 0 is no effect, 100 is complete control, read-out: Wheat plant response rating
[24] = post-emergence, Postemergence, 125 g ai/ha, visual rating after approx. 10 d, 0 to 100 scale (0 no effect, 100 complete control), read-out: Plant response rating, Barnyardgrass
[25] = post-emergence, Postemergence, 500 g ai/ha, 0 is no effect, 100 is complete control, read-out: Barnyardgrass plant response rating
[26] = pre-emergence, Preemergence, 125 g ai/ha, 0 to 100 scale where 0 is no effect and 100 is complete control, read-out: Barnyardgrass plant response rating
[27] = pre-emergence, Preemergence, 500 g ai/ha, 0 no effect, 100 complete control, read-out: Plant response rating, Barnyardgrass

For `CCC(=O)Oc1c(OC)nn(C)c(=O)c1-c1c(C)sc2ccc(Cl)cc12` [Compound 131], the “Plant response rating, Corn” value ([1]; 125 g ai/ha, 0 to 100 scale where 0 is no effect and 100 is complete control) was 0, the “Plant response rating, Corn” value ([1]; 500 g ai/ha, visual rating after approx. 10 d, 0 to 100 scale (0 no effect, 100 complete control)) was 10 and the “Plant response rating, Pigweed” value [2, 8] was 60. The “Plant response rating, Pigweed” value [2, 9] was 90, the “Pigweed plant response rating” value [2, 10] was 80 and the “Plant response rating, Pigweed” value [2, 11] was 100. For the same molecule, the “Plant response rating, Ragweed” value [3, 8] was 100, the “Plant response rating, Ragweed” value [3, 9] was 90 and the “Ragweed plant response rating” value [3, 10] was 40. The “Plant response rating, Ragweed” value [3, 11] was 60, the “Plant response rating, Foxtail, Giant” value [4, 8] was 50 and the “Plant response rating, Foxtail, Giant” value [4, 9] was 80. The “Foxtail, Giant plant response rating” value [4, 10] was 80, the “Plant response rating, Foxtail, Giant” value [4, 11] was 90 and the “Plant response rating, Wheat” value [5, 8] was 0. The “Plant response rating, Wheat” value [5, 9] was 20, the “Plant response rating, Kochia” value [6, 8] was 60 and the “Plant response rating, Kochia” value [6, 9] was 80. The “Kochia plant response rating” value [6, 10] was 0, the “Plant response rating, Kochia” value [6, 11] was 20 and the “Plant response rating, Barnyardgrass” value [7, 8] was 0. The “Plant response rating, Barnyardgrass” value [7, 9] was 20, the “Barnyardgrass plant response rating” value [7, 10] was 0 and the “Plant response rating, Barnyardgrass” value [7, 11] was 40.

`Cc1cc(C)c2oc(C)c(-c3c(OC(=O)C(C)(C)C)c(C)nn(C)c3=O)c2c1` [Compound 18, 1,6-dihydro-1,3-dimethyl-6-oxo-5-(2,5,7-trimethyl-3-benzofuranyl)-4-pyridazinyl 2,2-dimethylpropanoate] was tested, and the Corn plant response rating (crop injury, 0 = no effect, 100 = complete kill) at 125 g/ha [1, 12] was 0%, the plant injury at 500 g/ha [1, 13] was 20% and the pest or weed control at 125 g/ha [2, 14] was 0%. It also gave a pest or weed control at 500 g/ha [2, 15] of 0%, a pest or weed control at 125 g/ha [2, 16] of 0% and a pest or weed control at 500 g/ha [2, 17] of 0%. For the same molecule, the pest or weed control at 125 g/ha ([3]; post-emergence, Postemergence, 125 g ai/ha, visual rating after approx. 10 d, 0 to 100 scale (0 no effect, 100 complete control), read-out: Plant response rating, Ragweed) was 0%, the pest or weed control at 500 g/ha ([3]; post-emergence, Postemergence, 500 g ai/ha, 0 is no effect, 100 is complete control, read-out: Ragweed plant response rating) was 0% and the pest or weed control at 125 g/ha ([3]; pre-emergence, Preemergence, 125 g ai/ha, 0 to 100 scale where 0 is no effect and 100 is complete control, read-out: Ragweed plant response rating) was 0%. The pest or weed control at 500 g/ha ([3]; pre-emergence, Preemergence, 500 g ai/ha, 0 no effect, 100 complete control, read-out: Plant response rating, Ragweed) was 0%, the pest or weed control at 125 g/ha [4, 18] was 0% and the pest or weed control at 500 g/ha [4, 19] was 20%. For the same molecule, the pest or weed control at 125 g/ha [4, 20] was 0%, the pest or weed control at 500 g/ha [4, 21] was 0% and the plant injury at 125 g/ha [5, 22] was 0%. It also gave a plant injury at 500 g/ha [5, 23] of 0%, a pest or weed control at 125 g/ha ([6]; post-emergence, Postemergence, 125 g ai/ha, visual rating after approx. 10 d, 0 to 100 scale (0 no effect, 100 complete control), read-out: Plant response rating, Kochia) of 0% and a pest or weed control at 500 g/ha ([6]; post-emergence, Postemergence, 500 g ai/ha, 0 is no effect, 100 is complete control, read-out: Kochia plant response rating) of 0%. The pest or weed control at 125 g/ha ([6]; pre-emergence, Preemergence, 125 g ai/ha, 0 to 100 scale where 0 is no effect and 100 is complete control, read-out: Kochia plant response rating) was 0%, the pest or weed control at 500 g/ha ([6]; pre-emergence, Preemergence, 500 g ai/ha, 0 no effect, 100 complete control, read-out: Plant response rating, Kochia) was 0% and the pest or weed control at 125 g/ha [7, 24] was 0%. For the same molecule, the pest or weed control at 500 g/ha [7, 25] was 40%, the pest or weed control at 125 g/ha [7, 26] was 0% and the pest or weed control at 500 g/ha [7, 27] was 0%.

For `Cc1nn(C)c(=O)c(-c2c(C)oc3cccc(C)c23)c1O` [Compound 8, 4-(2,4-dimethyl-3-benzofuranyl)-5-hydroxy-2,6-dimethyl-3(2H)-pyridazinone], the Corn plant response rating (crop injury, 0 = no effect, 100 = complete kill) at 125 g/ha [1, 12] was 0%, the plant injury at 500 g/ha [1, 13] was 0% and the plant injury at 125 g/ha ([1]; Zea mays, pre-emergence, 240 h, Preemergence, 125 g ai/ha, 0 to 100 scale where 0 is no effect and 100 is complete control, read-out: Corn plant response rating) was 0%. The Corn plant response rating (crop injury, 0 = no effect, 100 = complete kill) at 500 g/ha ([1]; Zea mays, pre-emergence, 240 h, Preemergence, 500 g ai/ha, 0 to 100 scale, 0 no effect, 100 complete control) was 0%, the pest or weed control at 125 g/ha [2, 14] was 70% and the pest or weed control at 500 g/ha [2, 15] was 80%. For the same molecule, the pest or weed control at 125 g/ha [2, 16] was 70%, the pest or weed control at 500 g/ha [2, 17] was 100% and the pest or weed control at 125 g/ha [4, 18] was 0%. The pest or weed control at 500 g/ha [4, 19] was 30%, the pest or weed control at 125 g/ha [4, 20] was 40% and the pest or weed control at 500 g/ha [4, 21] was 60%. It also gave a plant injury at 125 g/ha [5, 22] of 0%, a plant injury at 500 g/ha [5, 23] of 0% and a plant injury at 125 g/ha ([5]; pre-emergence, Preemergence, 125 g ai/ha, 0 to 100 scale where 0 is no effect and 100 is complete control, read-out: Wheat plant response rating) of 0%. It also gave a plant injury at 500 g/ha ([5]; pre-emergence, Preemergence, 500 g ai/ha, 0 no effect, 100 complete control, read-out: Plant response rating, Wheat) of 0%, a pest or weed control at 125 g/ha [7, 24] of 0% and a pest or weed control at 500 g/ha [7, 25] of 0%. It also gave a pest or weed control at 125 g/ha [7, 26] of 0% and a pest or weed control at 500 g/ha [7, 27] of 0%.
